Experimental data as given in PubChem BioAssay (NCI).
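Method: 48-hour compound exposure of cells in 96-well plates, five concentrations, linear interpolation of endpoints. The concentration for full growth arrest is given as TGI.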

Columns and labels:
Experiment in all cases: inhibition of tumour cell growth, NCI panel, 48 h
[1] = tested on: SK-MEL-2 melanoma
[2] = tested on: MOLT-4 leukemia
[3] = tested on: COLO 205 colon
[4] = tested on: OVCAR-3 ovarian
[5] = tested on: NCI/ADR-RES ovarian
[6] = tested on: KM12 colon
[7] = tested on: IGROV1 ovarian
[8] = tested on: NCI-H23 lung
[9] = tested on: SK-OV-3 ovarian
[10] = tested on: CCRF-CEM leukemia
[11] = tested on: HCT-15 colon

C=CC(CCc1ccc(C(=O)OCC)cc1)c1c(N)nc(N)[nH]c1=O (centres undefined)
TGI [1]: > 100 µM
TGI [2]: > 100 µM
TGI [3]: > 100 µM
TGI [4]: > 100 µM
TGI [5]: > 100 µM
TGI [6]: > 100 µM
TGI [7]: > 100 µM
TGI [8]: > 100 µM
TGI [9]: > 100 µM
TGI [10]: > 100 µM
TGI [11]: > 100 µM

COC1=C(OC)C(=O)C(Cc2c(C)nc3sc(C)cn23)=C(C)C1=O
TGI [1]: 34.7 µM
TGI [2]: 4.23 µM
TGI [3]: 36 µM
TGI [4]: 35.6 µM
TGI [5]: 36.7 µM
TGI [6]: 55.5 µM
TGI [7]: 32.2 µM
TGI [8]: 37.2 µM
TGI [9]: 38.9 µM
TGI [10]: 53.7 µM
TGI [11]: 96.4 µM

O=Cc1ccc2c(c1)CC1(Cc3ccccc3C1)C2
TGI [1]: 27.1 µM
TGI [2]: 42.9 µM
TGI [3]: 54.2 µM
TGI [4]: 28.3 µM
TGI [5]: 79.8 µM
TGI [6]: > 100 µM
TGI [7]: 46.1 µM
TGI [8]: 50 µM
TGI [9]: > 100 µM
TGI [10]: 25.5 µM
TGI [11]: 73.4 µM

CON(C)C(=O)CNC(=O)OCC1c2ccccc2-c2ccccc21
TGI [1]: > 100 µM
TGI [2]: > 100 µM
TGI [3]: > 100 µM
TGI [4]: > 100 µM
TGI [5]: > 100 µM
TGI [6]: > 100 µM
TGI [7]: > 100 µM
TGI [8]: > 100 µM
TGI [9]: > 100 µM
TGI [10]: > 100 µM
TGI [11]: > 100 µM

CCN(CC)C(=O)Cn1c(C)cc2ccccc21
TGI [1]: > 100 µM
TGI [2]: > 100 µM
TGI [3]: > 100 µM
TGI [4]: > 100 µM
TGI [5]: > 100 µM
TGI [6]: > 100 µM
TGI [7]: > 100 µM
TGI [8]: > 100 µM
TGI [9]: > 100 µM
TGI [10]: > 100 µM
TGI [11]: > 100 µM

CSc1ncnc2c1ncn2C1CC(Oc2ccc(C)cc2)C(COc2ccc(C)cc2)O1 (centres undefined)
TGI [1]: > 100 µM
TGI [2]: > 100 µM
TGI [3]: > 100 µM
TGI [4]: > 100 µM
TGI [5]: > 100 µM
TGI [6]: > 100 µM
TGI [7]: > 100 µM
TGI [8]: > 100 µM
TGI [9]: > 100 µM
TGI [10]: > 100 µM
TGI [11]: > 100 µM

O=C1C(CN2CCCCC2)CCC1CN1CCCCC1 (centres undefined)
TGI [1]: 52.6 µM
TGI [2]: 3.79 µM
TGI [3]: 40.7 µM
TGI [4]: 26.5 µM
TGI [5]: 64.2 µM
TGI [6]: > 69.7 µM
TGI [7]: 49.7 µM
TGI [8]: 53.7 µM
TGI [9]: > 100 µM
TGI [10]: 3.97 µM
TGI [11]: 47.4 µM

CC1NC(=O)CC(c2ccccc2)N(N=O)C1c1ccccc1 (centres undefined)
TGI [1]: > 85.9 µM
TGI [2]: > 100 µM
TGI [3]: > 72.9 µM
TGI [4]: > 100 µM
TGI [5]: > 62.9 µM
TGI [6]: > 100 µM
TGI [7]: > 100 µM
TGI [8]: > 100 µM
TGI [9]: 62.6 µM
TGI [10]: 71.6 µM
TGI [11]: > 100 µM

O=C1/C(=C/c2ccc([N+](=O)[O-])cc2)C(=O)N(c2ccccc2)C1c1ccccc1 (centres undefined)
TGI [1]: > 10 µM
TGI [2]: > 10 µM
TGI [3]: > 10 µM
TGI [4]: > 10 µM
TGI [5]: > 10 µM
TGI [6]: > 10 µM
TGI [7]: > 10 µM
TGI [8]: > 10 µM
TGI [9]: > 10 µM
TGI [10]: > 10 µM
TGI [11]: > 10 µM

Cc1ccc(SCC(CF)OC(C)n2cnc3c(=O)[nH]c(N)nc32)cc1 (centres undefined)
TGI [1]: > 100 µM
TGI [2]: > 100 µM
TGI [3]: > 100 µM
TGI [4]: > 100 µM
TGI [5]: > 100 µM
TGI [6]: > 100 µM
TGI [7]: > 100 µM
TGI [8]: > 100 µM
TGI [9]: > 100 µM
TGI [10]: > 100 µM
TGI [11]: > 100 µM

COc1cc(CNCc2cc(OC)c(OC)c(OC)c2)cc(OC)c1OC
TGI [1]: > 10 µM
TGI [2]: > 10 µM
TGI [3]: > 10 µM
TGI [4]: > 10 µM
TGI [5]: > 10 µM
TGI [6]: > 10 µM
TGI [7]: > 10 µM
TGI [8]: > 10 µM
TGI [9]: > 10 µM
TGI [10]: 5.86 µM
TGI [11]: > 10 µM

CCOCc1nc2c(OC)cc(-c3nc4ccc(N5CCN(C)CC5)cc4[nH]3)c(OC)c2[nH]1
TGI [1]: 40.6 µM
TGI [2]: 76.6 µM
TGI [3]: 38 µM
TGI [4]: 70.6 µM
TGI [5]: > 100 µM
TGI [6]: > 100 µM
TGI [7]: > 100 µM
TGI [8]: > 100 µM
TGI [9]: > 100 µM
TGI [10]: 34 µM
TGI [11]: > 100 µM

Cc1ccc(N=Nc2c(O)ccc3cc(S(=O)(=O)O)cc(S(=O)(=O)O)c23)cc1
TGI [1]: > 100 µM
TGI [2]: > 100 µM
TGI [3]: > 100 µM
TGI [4]: > 100 µM
TGI [5]: > 100 µM
TGI [6]: > 100 µM
TGI [7]: > 100 µM
TGI [8]: > 100 µM
TGI [9]: > 100 µM
TGI [10]: > 100 µM
TGI [11]: > 100 µM

Cc1ccc2c(c1)C(C(=O)N[C@@H]1C(=O)N3[C@@H]1SC(C)(C)[C@@H]3C(=O)O)OCCC2 (some centres undefined)
TGI [1]: > 100 µM
TGI [2]: > 100 µM
TGI [3]: > 100 µM
TGI [4]: > 100 µM
TGI [5]: > 100 µM
TGI [6]: > 100 µM
TGI [7]: > 100 µM
TGI [8]: > 100 µM
TGI [9]: > 100 µM
TGI [10]: > 100 µM
TGI [11]: > 100 µM

COc1cccc(-c2ccc3c4c2O[C@H]2C(=O)CC[C@@]5(O)[C@@H](C3)N(CC3CC3)CC[C@]425)c1
TGI [1]: 34.1 µM
TGI [2]: 24.7 µM
TGI [3]: 26.7 µM
TGI [4]: 27.6 µM
TGI [5]: 38.8 µM
TGI [6]: 31.7 µM
TGI [7]: 44.2 µM
TGI [8]: 64.8 µM
TGI [9]: 34.5 µM
TGI [10]: 27.9 µM
TGI [11]: 29.3 µM

CCN(CC)C(=S)N/N=C(/C)c1cccc(/C(C)=N\NC(=S)N(CC)CC)n1
TGI [1]: 20.3 µM
TGI [2]: 5.77 µM
TGI [3]: 11.3 µM
TGI [4]: 7.44 µM
TGI [5]: 10.5 µM
TGI [6]: 4.1 µM
TGI [7]: 8.08 µM
TGI [8]: 19.2 µM
TGI [9]: 5.43 µM
TGI [10]: > 100 µM
TGI [11]: 17.1 µM

COc1cc(Cn2c3c(c4cc(O)ccc42)Cc2ccccc2C3=O)cc(OC)c1
TGI [1]: > 100 µM
TGI [2]: > 100 µM
TGI [3]: > 100 µM
TGI [4]: > 100 µM
TGI [5]: 66.1 µM
TGI [6]: > 100 µM
TGI [7]: > 100 µM
TGI [8]: > 100 µM
TGI [9]: > 100 µM
TGI [10]: 86 µM
TGI [11]: > 100 µM

COc1cc(/C=C2/C[C@H]3[C@@H]4CC=C5C[C@@H](O)CC[C@]5(C)[C@H]4CC[C@]3(C)NC2=O)cc(OC)c1OC
TGI [1]: > 62.9 µM
TGI [2]: > 100 µM
TGI [3]: > 57.9 µM
TGI [4]: > 100 µM
TGI [5]: > 65.2 µM
TGI [6]: > 100 µM
TGI [7]: 38.1 µM
TGI [8]: > 62.7 µM
TGI [9]: > 92.3 µM
TGI [10]: > 100 µM
TGI [11]: > 59.5 µM

COc1ccc(C(=C(Cl)c2ccccc2)c2ccc(OC)cc2)cc1
TGI [1]: > 100 µM
TGI [2]: > 100 µM
TGI [3]: > 100 µM
TGI [4]: > 100 µM
TGI [5]: > 100 µM
TGI [6]: > 100 µM
TGI [7]: > 100 µM
TGI [8]: > 100 µM
TGI [9]: > 100 µM
TGI [10]: > 100 µM
TGI [11]: > 100 µM
